Laboratory results published in patent US20250041294A1, “Synergistic compositions for use in the treatment of cancer” (Sartar Therapeutics Oy, priority 2021, published 2025).
Like-named read-outs stand apart in the source and are kept apart here.

Assays:
Format in all cases: cell-based
[1] = tested on: GIST882, GOT3 and SA4 cell lines; test: High throughput drug sensitivity and resistance test, average over cell lines (BAY2666605 combination); settings: for Average DSS (aDSS): BAY2666605 combination, average of GIST882, SA4 and GOT3, aDSS higher than 3.0 = synergy
Description: (§1) Cell lines. PDE3A-positive (GIST882, SA4, and GOT3) and PDE3A-negative cell lines (93TT449, 94T778, LPS141, MLS17656-92, MLS402-91, and SW872) were cultured in RPMI Medium 1640 (Gibco) with 5-, 10- or 20% fetal bovine serum (FBS, gibco), 100 U/mL of penicillin, 100 […] and 0.03 mg/mL of L-glutamine (Pen Strep Glut, Gibco, 10378-016) in a humidified, 5% CO2 atmosphere at 37° C.
(§2) High throughput drug sensitivity and resistance test. A sensitivity and resistance of cancer cell lines to 528 compounds were investigated in 9 cell lines (GIST882, SA4, GOT3, 93TT449, 94T778, LPS141, MLS17656-92, MLS402-91, and SW872). In addition, same compounds were investigated together with anagrelide hydrochloride (100 nM) treatment in the PDE3A low expressing cell lines SA4 and GOT3, and with BAY2666605 (40 nM) in all PDE3A-positive cell lines GIST882, SA4 and GOT3. The compounds were dissolved in 100% dimethyl sulfoxide or water and plated in 10-fold dilutions covering a 10,000-fold concentration range on flat clear bottom 384-well microplates as described in detail earlier (Pulkka O P, et al 2019). A cell viability was measured after 72 hours using CellTiter-Glo Cell Viability assay (Promega Inc.) and PHERAstar FS plate reader (BMG Labtech). The data were normalized to negative (0.01% dimethyl sulfoxide only) and positive (100 μmol/L benzethonium chloride) controls.
(§3) A four-parameter logistic dose-response curves were estimated by using the Marquardt-Levenberg algorithm and Breeze analysis platform. Drug responses to the test compounds were measured using the drug sensitivity score (DSS). Drug synergy partners, which were common in investigated cell lines were identified as following: DSS value of a single agent was subtracted from the DSS value of anagrelide-drug combination in single cell lines. […] The analysis was repeated by using BAY2666605 as a PDE3A modulator.

GIST882 cell line = test: High throughput drug sensitivity and resistance test (CellTiter-Glo, 72 hours); settings: drug combined with BAY2666605 (40 nM) minus drug alone
Description: High throughput drug sensitivity and resistance test. […] In addition, same compounds were investigated together with anagrelide hydrochloride (100 nM) treatment in the PDE3A low expressing cell lines SA4 and GOT3, and with BAY2666605 (40 nM) in all PDE3A-positive cell lines GIST882, SA4 and GOT3. […] A cell viability was measured after 72 hours using CellTiter-Glo Cell Viability assay (Promega Inc.) and PHERAstar FS plate reader (BMG Labtech). The data were normalized to negative (0.01% dimethyl sulfoxide only) and positive (100 μmol/L benzethonium chloride) controls.
as §3

GOT3 cell line = test: as above; settings: GOT3; for GOT3 cell line: DSS(combo (BAY2666605))-DSS(drug): drug combined with BAY2666605 (40 nM) minus drug alone; for GOT3 cell line: DSS(combo (anagrelide))-DSS(drug): drug combined with anagrelide hydrochloride (100 nM) minus drug alone
Description: as §1, §2, §3

SA4 cell line = test: as above; settings: SA4; for SA4 cell line: DSS(combo (BAY2666605))-DSS(drug): drug combined with BAY2666605 (40 nM) minus drug alone; for SA4 cell line: DSS(combo (anagrelide))-DSS(drug): drug combined with anagrelide hydrochloride (100 nM) minus drug alone
Description: as §1, §2, §3

GOT3 and SA4 cell lines = test: High throughput drug sensitivity and resistance test, average over cell lines (anagrelide combination); settings: anagrelide combination, average of SA4 and GOT3; aDSS higher than 3.0 = synergy
Description: as §1, §2, §3

[2] = with anagrelide (GOT3, SA4) or BAY2666605 (GIST882, GOT3, SA4)

Row | SMILES | Average DSS (aDSS) [1] | synergy in high-throughput screening (in words) [1, 2] | GIST882 cell line: DSS(combo (BAY2666605))-DSS(drug) (GIST882 cell line) | GOT3 cell line: DSS(combo (BAY2666605))-DSS(drug) (GOT3 cell line) | GOT3 cell line: DSS(combo (anagrelide))-DSS(drug) (GOT3 cell line) | SA4 cell line: DSS(combo (BAY2666605))-DSS(drug) (SA4 cell line) | SA4 cell line: DSS(combo (anagrelide))-DSS(drug) (SA4 cell line) | Average DSS (aDSS) (GOT3 and SA4 cell lines) | synergy in high-throughput screening (in words) [1]
1 | CN(C)Cc1c(C(=O)NCCOc2ccc(C(=O)NO)cc2)oc2ccccc12 [Abexinostat, abexinostat] | 6.2 | synergistic | 4.2 | 2.1 | −1.1 | 12.3 | 10.9 | 4.9 | 
2 | CC(C)C[C@H](NC(=O)[C@H](Cc1ccccc1)NC(=O)c1cnccn1)B(O)O [Bortezomib, bortezomib] | 7.8 |  | 1.7 | 10.4 |  | 11.2 |  |  | 
3 | CO[C@H]1C[C@@H]2CC[C@@H](C)[C@@](O)(O2)C(=O)C(=O)N2CCCC[C@H]2C(=O)O[C@H]([C@H](C)C[C@@H]2CC[C@@H](OP(C)(C)=O)[C@H](OC)C2)CC(=O)[C@H](C)/C=C(\C)[C@@H](O)[C@@H](OC)C(=O)[C@H](C)C[C@H](C)/C=C/C=C/C=C/1C [Ridaforolimus, ridaforolimus] |  |  | 0.3 | −1.9 | 4.4 | 13.7 | 13.2 | 8.8 | 
4 | Cn1c(=O)n(-c2ccc(C(C)(C)C#N)cc2)c2c3cc(-c4cnc5ccccc5c4)ccc3ncc21 [Dactolisib, dactolisib] | 5.3 | synergistic | 3.1 | 8.2 |  | 4.6 |  |  | 
5 | O=C(CCCCCCNC(=O)c1cnc(N(c2ccccc2)c2ccccc2)nc1)NO [Rocilinostat, rocilinostat] | 3.3 |  | 1.4 | 0.9 |  | 7.5 |  |  | synergistic
6 | CN1CCc2c(c3ccccc3n2Cc2ccc(C(=O)NO)cc2)C1 [Tubastatin A, tubastatin A] | 4.4 | synergistic | −0.3 | 2.8 |  | 10.7 |  |  | 
7 | Cn1nnc2c(C(N)=O)ncn2c1=O [Temozolomide, temozolomide] | 4.2 |  | 5.4 | 1.9 |  | 5.2 |  |  | 
8 | CC(C)N(C[C@H]1O[C@@H](n2cnc3c(N)ncnc32)[C@H](O)[C@@H]1O)[C@H]1C[C@@H](CCc2nc3cc(C(C)(C)C)ccc3[nH]2)C1 [Pinometostat, pinometostat] | 4.6 | synergistic | 3.9 | 0 |  | 9.8 |  |  | 
9 | NC(=O)/C(=C/n1cnc(-c2cc(C(F)(F)F)cc(C(F)(F)F)c2)n1)c1cncnc1 [Eltanexor, eltanexor] | 3.1 | synergistic | 5.4 | 0.8 |  | 3.1 |  |  | 
10 | COc1ccc(-c2ccc3ncc4c(c3c2)n(-c2ccc(N3CCNCC3)c(C(F)(F)F)c2)c(=O)n4C)cn1 [NVP-BGT226] | 4.8 | synergistic | 6.2 | 0.1 |  | 8.1 |  |  | 
